This note sets out measurements from patent US8268840B2, “Pyrimidinyl pyridone inhibitors of kinases” (Roche Palo Alto LLC, priority 2008, dated 2012).

Molecules are shown by their SMILES.

One may read the melting point as the temperature, or range, at which the solid turns liquid. The compound `CS(=O)(=O)N1CCC(Nc2ncc3c(N)cc(=O)n(C4CCCCC4)c3n2)CC1` [Compound I-29, 5-Amino-8-cyclohexyl-2-(1-methanesulfonyl-piperidin-4-ylamino)-8H-pyrido[2,3-d]pyrimidin-7-one] had a melting point of 250 to 254 °C.

Compound `CC(=O)N1CCC(Nc2ncc3c(N)cc(=O)n(C4CCCC4)c3n2)CC1` [Compound I-30, 2-(1-Acetyl-piperidin-4-ylamino)-5-amino-8-cyclopentyl-8H-pyrido[2,3-d]pyrimidin-7-one] registered a melting point of 282 to 285 °C.

On to `Nc1c(-c2ccccc2)c(=O)n(C2CCC2)c2nc(NC3CCCCC3)ncc12` [Compound I-31, 5-Amino-8-cyclobutyl-2-cyclohexylamino-6-phenyl-8H-pyrido[2,3-d]pyrimidin-7-one], for which the melting point was 160 to 161 °C.

In turn, `Nc1cc(=O)n(C2CCCCC2)c2nc(NC3CCCCC3)ncc12` [Compound I-32, 5-Amino-8-cyclohexyl-2-cyclohexylamino-8H-pyrido[2,3-d]pyrimidin-7-one] gave a melting point of 243.1 to 244.9 °C.

Turning to `Nc1cc(=O)n(C2CCCC2)c2nc(NC3CCOCC3)ncc12` [Compound I-33, 5-Amino-8-cyclopentyl-2-(tetrahydro-pyran-4-ylamino)-8H-pyrido[2,3-d]pyrimidin-7-one], the melting point fell in the range of 120 to 124 °C.

`Cc1c(N)c2cnc(N[C@@H]3CCCC[C@H]3C)nc2n(C2CCC2)c1=O` [Compound I-34, 5-Amino-8-cyclobutyl-6-methyl-2-((1R,2R)-2-methyl-cyclohexylamino)-8H-pyrido[2,3-d]pyrimidin-7-one] displayed a melting point of 209 to 210 °C.

Compound `CCc1c(N)c2cnc(NC3CCCCC3)nc2n(C2CCCC2)c1=O` [Compound I-36, 5-Amino-2-cyclohexylamino-8-cyclopentyl-6-ethyl-8H-pyrido[2,3-d]pyrimidin-7-one] displayed a melting point of 229.8 to 230.5 °C.

`N#Cc1c(N)c2cnc(N[C@H]3CC[C@H](C(=O)N4CCC(O)CC4)CC3)nc2n(C2CCC2)c1=O` [Compound I-38, 5-Amino-8-cyclobutyl-2-[4-(4-hydroxy-piperidine-1-carbonyl)-cyclohexylamino]-7-oxo-7,8-dihydro-pyrido[2,3-d]pyrimidine-6-carbonitrile] yielded a melting point of over 300 °C.

`COC(=O)N[C@H]1CC[C@H](Nc2ncc3c(N)cc(=O)n(C4CC4)c3n2)CC1` [Compound I-39, [4-(5-Amino-8-cyclopropyl-7-oxo-7,8-dihydro-pyrido[2,3-d]pyrimidin-2-ylamino)-cyclohexyl]-carbamic acid methyl ester] yielded a melting point of 257 to 259 °C.

`Cc1c(N)c2cnc(NC3CCN(S(C)(=O)=O)CC3)nc2n(C2CCC2)c1=O` [Compound I-40, 5-Amino-8-cyclobutyl-2-(1-methanesulfonyl-piperidin-4-ylamino)-6-methyl-8H-pyrido[2,3-d]pyrimidin-7-one] returned a melting point of 265.3 to 267 °C.

Turning to `CC(=O)N[C@H]1CC[C@H](Nc2ncc3c(N)c(C)c(=O)n(C4CCCC4)c3n2)CC1` [Compound I-41, N-[4-(5-Amino-8-cyclopentyl-6-methyl-7-oxo-7,8-dihydro-pyrido[2,3-d]pyrimidin-2-ylamino)-cyclohexyl]-acetamide], the melting point lay in the range of 296.2 to 298.2 °C.

Turning to `CC(=O)N[C@H]1CC[C@H](Nc2ncc3c(N)cc(=O)n(CCCO)c3n2)CC1` [Compound I-42, N-{4-[5-Amino-8-(3-hydroxy-propyl)-7-oxo-7,8-dihydro-pyrido[2,3-d]pyrimidin-2-ylamino]-cyclohexyl}-acetamide], the melting point was over 300 °C.

Regarding `COC(=O)N[C@H]1CC[C@H](Nc2ncc3c(N)cc(=O)n(CCCO)c3n2)CC1` [Compound I-43, {4-[5-Amino-8-(3-hydroxy-propyl)-7-oxo-7,8-dihydro-pyrido[2,3-d]pyrimidin-2-ylamino]-cyclohexyl}-carbamic acid methyl ester], the melting point fell in the range of 190 to 191 °C.

The compound `Cc1c(N)c2cnc(NC3CCCCC3)nc2n([C@@H]2CCOC2)c1=O` [Compound I-44, 5-Amino-2-cyclohexylamino-6-methyl-8-(R)-tetrahydro-furan-3-yl-8H-pyrido[2,3-d]pyrimidin-7-one] had a melting point of 225 to 226 °C.

On to `Nc1cc(=O)n(C2CCCC2)c2nc(Nc3ccccc3)ncc12` [Compound I-45, 5-Amino-8-cyclopentyl-2-phenylamino-8H-pyrido[2,3-d]pyrimidin-7-one], for which the melting point was 128.3 to 130 °C.

For the compound `Nc1cc(=O)n(CC2CC2)c2nc(NC3CCOCC3)ncc12` [Compound I-46, 5-Amino-8-cyclopropylmethyl-2-(tetrahydro-pyran-4-ylamino)-8H-pyrido[2,3-d]pyrimidin-7-one], the melting point was in the range of 135 to 137.4 °C.

Regarding `Cc1c(N)c2cnc(N[C@H]3CC[C@H](C(=O)N4CCC(O)CC4)CC3)nc2n([C@@H]2CCOC2)c1=O` [Compound I-47, 5-Amino-2-[4-(4-hydroxy-piperidine-1-carbonyl)-cyclohexylamino]-6-methyl-8-(R)-tetrahydro-furan-3-yl-8H-pyrido[2,3-d]pyrimidin-7-one], the melting point is 173 to 174 °C.

Take `CC(C)c1c(N)c2cnc(NC3CCCCC3)nc2n(C2CCC2)c1=O` [Compound I-49, 5-Amino-8-cyclobutyl-2-cyclohexylamino-6-isopropyl-8H-pyrido[2,3-d]pyrimidin-7-one]: the melting point was in the range of 277.5 to 278 °C.

The compound `CCn1c(=O)cc(N)c2cnc(NC3CCOCC3)nc21` [Compound I-50, 5-Amino-8-ethyl-2-(tetrahydro-pyran-4-ylamino)-8H-pyrido[2,3-d]pyrimidin-7-one] showed a melting point of 235 to 238.2 °C.

In turn, `Nc1cc(=O)n(C2CCCCC2)c2nc(NC3CCOCC3)ncc12` [Compound I-51, 5-Amino-8-cyclohexyl-2-(tetrahydro-pyran-4-ylamino)-8H-pyrido[2,3-d]pyrimidin-7-one] returned a melting point of 160 to 164 °C.

In turn, `Cc1c(N)c2cnc(NC3CCN(S(C)(=O)=O)CC3)nc2n([C@@H]2CCOC2)c1=O` [Compound I-53, 5-Amino-2-(1-methanesulfonyl-piperidin-4-ylamino)-6-methyl-8-(R)-tetrahydro-furan-3-yl-8H-pyrido[2,3-d]pyrimidin-7-one] had a melting point of over 300 °C.

Consider `Nc1cc(=O)n(C2CC2)c2nc(NC3CCOCC3)ncc12` [Compound I-54, 5-Amino-8-cyclopropyl-2-(tetrahydro-pyran-4-ylamino)-8H-pyrido[2,3-d]pyrimidin-7-one], for which the melting point was in the range of 264.4 to 266.8 °C.

For `Nc1cc(=O)n(CC2CC2)c2nc(NC3CCC3)ncc12` [Compound I-55, 5-Amino-2-cyclobutylamino-8-cyclopropylmethyl-8H-pyrido[2,3-d]pyrimidin-7-one], the melting point lay in the range of 236.1 to 239.1 °C.

`CCOC(=O)N1CCC(Nc2ncc3c(N)c(C)c(=O)n(C4CCC4)c3n2)CC1` [Compound I-56, 4-(5-Amino-8-cyclobutyl-6-methyl-7-oxo-7,8-dihydro-pyrido[2,3-d]pyrimidin-2-ylamino)-piperidine-1-carboxylic acid ethyl ester]: the melting point lay within 201.3 to 202.6 °C.

`Nc1cc(=O)n(C2CCCCC2)c2nc(NC3CCC(F)(F)CC3)ncc12` [Compound I-57, 5-Amino-8-cyclohexyl-2-(4,4-difluoro-cyclohexylamino)-8H-pyrido[2,3-d]pyrimidin-7-one] showed a melting point of 240 to 244.1 °C.

As to `CC(=O)N1CCC(Nc2ncc3c(N)c(C)c(=O)n(C4CCCC4)c3n2)CC1` [Compound I-59, 2-(1-Acetyl-piperidin-4-ylamino)-5-amino-8-cyclopentyl-6-methyl-8H-pyrido[2,3-d]pyrimidin-7-one], the melting point was in the range of 281 to 283 °C.

In the case of `Cc1ccccc1Nc1ncc2c(N)c(C)c(=O)n(C3CCC3)c2n1` [Compound I-62, 5-Amino-8-cyclobutyl-6-methyl-2-o-tolylamino-8H-pyrido[2,3-d]pyrimidin-7-one], the melting point fell in the range of 186 to 187 °C.

`Nc1cc(=O)n(Cc2ccccc2)c2nc(NC3CCCCC3)ncc12` [Compound I-66, 5-Amino-8-benzyl-2-cyclohexylamino-8H-pyrido[2,3-d]pyrimidin-7-one]: the melting point lay in the range of 221.9 to 223.8 °C.

Compound `CC(=O)c1c(N)c2cnc(NC3CCCCC3)nc2n(C2CCC2)c1=O` [Compound I-68, 6-Acetyl-5-amino-8-cyclobutyl-2-cyclohexylamino-8H-pyrido[2,3-d]pyrimidin-7-one] displayed a melting point of 256 to 257 °C.

In turn, `Nc1cc(=O)n(Cc2ccccc2)c2nc(NC3CCOCC3)ncc12` [Compound I-69, 5-Amino-8-benzyl-2-(tetrahydro-pyran-4-ylamino)-8H-pyrido[2,3-d]pyrimidin-7-one] registered a melting point of 245.6 to 246.8 °C.

`Cc1cccc(C)c1Nc1ncc2c(N)c(C)c(=O)n(C3CCC3)c2n1` [Compound I-70, 5-Amino-8-cyclobutyl-2-(2,6-dimethyl-phenylamino)-6-methyl-8H-pyrido[2,3-d]pyrimidin-7-one] registered a melting point of 213 to 214 °C.
